Experimental findings from US20250368614A1, “COMPOUNDS AND METHODS FOR YAP/TEAD MODULATION AND INDICATIONS THEREFOR” (OPNA BIO SA, priority 2023, published 2025) are described below.

The assay concerns TEAD-dependent transcription (12XGTIIC TEAD response element luciferase reporter) in MSTO-211H cells. The experiment in a line: TEAD-dependent transcription cell-based luciferase reporter assay in MSTO-211H+12XGTIIC cells. The settings on record: Homo sapiens; MSTO-211H+12XGTIIC reporter cells, 24 hours compound incubation, luminescence normalized to cell viability signal, geometric mean; read-out: MSTO-211H GMean IC50 (uM) Cell Assay Reporter Cell Variant: TEAD. The source says:
Determine Inhibitor Activity Against TEAD-Dependent Transcription in a Cell-Based Reporter Assay
The human mesothelioma cell line MSTO-211H was stably transfected with a pGL4.21 plasmid containing a synthetic promoter with 12 copies of the GTIIC TEAD response element that drives the expression of a luciferase reporter gene^1 using Lipofectamine transfection reagent (Thermo Fisher). Transfected cells were selected using puromycin and single cell clones expressing this construct (referred to as MSTO-211H+12XGTIIC) were generated by limiting dilution. MSTO-211H cells was characterized by genetic alterations in key components of the Hippo pathway^2, resulting in up-regulation of YAP/TEAD-mediated transcription. […] To evaluate TEAD inhibitors, the MSTO-211H+12XGTIIC cell line was seeded in a 96-well plate in 50 μL of culture media at 1×10^4 cells per well and incubated at 37° C. overnight. Serial dilutions of compounds (in total volume of 50 μL of culture media) were added to the cells and incubated at 37° C. for 24 hours. Each plate included cells treated with DMSO as high controls and cells treated with 20 μM of the reference compound K-975 (a known TEAD inhibitor^3) as low controls. Cell viability was assayed by the addition of 25 μL of CellTiter-Fluor reagent (Promega) followed by a 30-minute incubation at 37° C. and quantification of the fluorescence signal (Ex400/Em505). Subsequently, luciferase expression was assayed by the addition of 25 μL of ONE-Glo reagent (Promega) followed by a 10-minute incubation at room temperature and quantification of the luminescence signal. The luminescence signal was normalized to the fluorescence signal to correct for any loss in cell viability over the 24-hour compound incubation period. The percentage of inhibition of normalized luminescence signal, indicative of compound-mediated inhibition of TEAD-dependent transcription, at individual compound concentrations relative to high and low controls was calculated. The data were analyzed by using nonlinear regression to generate IC50 values for individual compounds.
Background: A reporter such as luciferase makes a cellular process visible.
Usually IC50 stands for the point on the concentration scale where inhibition reaches its midpoint. Regarding `Nc1cc(C(=O)N2CCc3c(cccc3Nc3ccc(C(F)(F)F)cc3)C2)ccn1` [Compound O-0032, (2-aminopyridin-4-yl)(5-((4-(trifluoromethyl)phenyl)amino)-3,4-dihydroisoquinolin-2(1H)-yl)methanone], the IC50 lay in the range of 0.001 to 10 µM.

Take `Nc1nc(C(=O)N2CCc3c(cccc3Nc3ccc(C(F)(F)F)cc3)C2)cs1` [Compound O-0006, (2-aminothiazol-4-yl)(5-((4-(trifluoromethyl)phenyl)amino)-3,4-dihydroisoquinolin-2(1H)-yl)methanone]: the IC50 lay in the range of 0.001 to 10 µM.

For `CN(c1ccc(C(F)(F)F)cc1)c1cccc2c1CCN(C(=O)Cc1cn[nH]c1)C2` [Compound O-0011, 1-(5-(methyl(4-(trifluoromethyl)phenyl)amino)-3,4-dihydroisoquinolin-2(1H)-yl)-2-(1H-pyrazol-4-yl)ethan-1-one], the 50% inhibitory concentration (IC50) fell in the range of 0.001 to 10 µM.

Consider `CN(c1ccc(C(F)(F)F)nc1)c1cccc2c1CCN(C(=O)CCS(=O)(=O)C(F)(F)F)C2` [Compound O-0023, 1-(5-(methyl(6-(trifluoromethyl)pyridin-3-yl)amino)-3,4-dihydroisoquinolin-2(1H)-yl)-3-((trifluoromethyl)sulfonyl)propan-1-one], for which the IC50 fell in the range of 0.001 to 10 µM.

For the compound `O=C(Nc1ccccn1)N1CCC(C(=O)N2CCc3c(cccc3Nc3ccc(C(F)(F)F)cn3)C2)C1` (stereo not drawn) [Compound O-0093, N-(pyridin-2-yl)-3-(5-((5-(trifluoromethyl)pyridin-2-yl)amino)-1,2,3,4-tetrahydroisoquinoline-2-carbonyl)pyrrolidine-1-carboxamide], the IC50 fell in the range of 0.001 to 10 µM.

On to `O=C(NCCC(=O)N1CCc2c(cccc2Nc2ccc(C(F)(F)F)nc2)C1)Nc1ccccn1` [Compound O-0184, 1-(3-oxo-3-(5-((6-(trifluoromethyl)pyridin-3-yl)amino)-3,4-dihydroisoquinolin-2(1H)-yl)propyl)-3-(pyridin-2-yl)urea], for which the IC50 fell in the range of 0.001 to 10 µM.

In the case of `O=C(NCc1ccccn1)N1CCc2c(cccc2Nc2ccc(C(F)(F)F)cc2)C1` [Compound O-0194, N-(pyridin-2-ylmethyl)-5-((4-(trifluoromethyl)phenyl)amino)-3,4-dihydroisoquinoline-2(1H)-carboxamide], the IC50 was 0.001 to 10 µM.

On to `O=C(NCCC(=O)N1CCc2c(cccc2Nc2ccc(C(F)(F)F)cn2)C1)NC1CC1` [Compound O-0187, 1-cyclopropyl-3-(3-oxo-3-(5-((5-(trifluoromethyl)pyridin-2-yl)amino)-3,4-dihydroisoquinolin-2(1H)-yl)propyl)urea], for which the IC50 fell in the range of 0.001 to 10 µM.

For `O=C(c1cccc2[nH]c(C(F)(F)F)nc12)N1CCc2c(cccc2Nc2ccc(C(F)(F)F)cc2)C1` [Compound O-0058, (2-(trifluoromethyl)-1H-benzo[d]imidazol-4-yl)(5-((4-(trifluoromethyl)phenyl)amino)-3,4-dihydroisoquinolin-2(1H)-yl)methanone], the IC50 was 0.001 to 10 µM.

Regarding `CN(c1ccc(C(F)(F)F)cc1)c1cccc2c1CCN(C(=O)c1cccc(N)c1)C2` [Compound O-0013, (3-aminophenyl)(5-(methyl(4-(trifluoromethyl)phenyl)amino)-3,4-dihydroisoquinolin-2(1H)-yl)methanone], the IC50 fell in the range of 0.001 to 10 µM.

As for `O=C(NCCC(=O)N1CCc2c(cccc2Nc2ccc(C(F)(F)F)c(F)c2)C1)Nc1ccccn1` [Compound O-0185, 1-(3-(5-((3-fluoro-4-(trifluoromethyl)phenyl)amino)-3,4-dihydroisoquinolin-2(1H)-yl)-3-oxopropyl)-3-(pyridin-2-yl)urea], the IC50 was in the range of 0.001 to 10 µM.

In the case of `O=C(Nc1ccccn1)N1CCC(C(=O)N2CCc3c(cccc3Nc3ccc(C(F)(F)F)nc3)C2)C1` (stereo not drawn) [Compound O-0097, N-(pyridin-2-yl)-3-(5-((6-(trifluoromethyl)pyridin-3-yl)amino)-1,2,3,4-tetrahydroisoquinoline-2-carbonyl)pyrrolidine-1-carboxamide], the IC50 was in the range of 0.001 to 10 µM.

Regarding `O=C(Nc1ccccn1)N1CCC(C(=O)N2CCc3c(cccc3Nc3ccc(C(F)(F)F)cc3F)C2)C1` (stereo not drawn) [Compound O-0095, 3-(5-((2-fluoro-4-(trifluoromethyl)phenyl)amino)-1,2,3,4-tetrahydroisoquinoline-2-carbonyl)-N-(pyridin-2-yl)pyrrolidine-1-carboxamide], the IC50 was in the range of 0.001 to 10 µM.

On to `Nc1cccc(C(=O)N2CCc3c(cccc3Nc3ccc(C(F)(F)F)cc3)C2)n1` [Compound O-0029, (6-aminopyridin-2-yl)(5-((4-(trifluoromethyl)phenyl)amino)-3,4-dihydroisoquinolin-2(1H)-yl)methanone], for which the IC50 lay in the range of 10 to 100 µM.

`CS(=O)(=O)CCC(=O)N1CCc2c(cccc2Nc2ccc(C(F)(F)F)cc2)C1` [Compound O-0001, 3-(methylsulfonyl)-1-(5-((4-(trifluoromethyl)phenyl)amino)-3,4-dihydroisoquinolin-2(1H)-yl)propan-1-one]: the IC50 fell in the range of 0.001 to 10 µM.

As to `C=CC(=O)Nc1nccc(C(=O)N2CCc3c(cccc3Nc3ccc(C(F)(F)F)cc3)C2)n1` [Compound O-0039, N-(4-(5-((4-(trifluoromethyl)phenyl)amino)-1,2,3,4-tetrahydroisoquinoline-2-carbonyl)pyrimidin-2-yl)acrylamide], the IC50 lay within 0.001 to 10 µM.

As for `NC(=O)NCCC(=O)N1CCc2c(cccc2Nc2ccc(C(F)(F)F)cc2)C1` [Compound O-0056, 1-(3-oxo-3-(5-((4-(trifluoromethyl)phenyl)amino)-3,4-dihydroisoquinolin-2(1H)-yl)propyl)urea], the IC50 fell in the range of 0.001 to 10 µM.

For the compound `O=C(NC1CC1)N1CCC(C(=O)N2CCc3c(cccc3Nc3ccc(C(F)(F)F)cc3F)C2)C1` (stereo not drawn) [Compound O-0094, N-cyclopropyl-3-(5-((2-fluoro-4-(trifluoromethyl)phenyl)amino)-1,2,3,4-tetrahydroisoquinoline-2-carbonyl)pyrrolidine-1-carboxamide], the IC50 was 0.001 to 10 µM.

Consider `O=C1NS(=O)(=O)c2cc(C(=O)N3CCc4c(cccc4Nc4ccc(C(F)(F)F)cc4)C3)ccc21` [Compound O-0199, 6-(5-((4-(trifluoromethyl)phenyl)amino)-1,2,3,4-tetrahydroisoquinoline-2-carbonyl)benzo[d]isothiazol-3(2H)-one 1,1-dioxide], for which the IC50 is 0.001 to 10 µM.

On to `CN1CCN(CCCS(=O)(=O)N2CCc3c(cccc3Nc3ccc(C(F)(F)F)cc3)C2)CC1` [Compound O-0198, 2-((3-(4-methylpiperazin-1-yl)propyl)sulfonyl)-N-(4-(trifluoromethyl)phenyl)-1,2,3,4-tetrahydroisoquinolin-5-amine], for which the concentration for half-maximal inhibition (IC50) lay within 0.001 to 10 µM.

For `CN(c1ccc(C(F)(F)F)cc1)c1cccc2c1CCN(C(=O)CCS(=O)(=O)C(F)(F)F)C2` [Compound O-0016, 1-(5-(methyl(4-(trifluoromethyl)phenyl)amino)-3,4-dihydroisoquinolin-2(1H)-yl)-3-((trifluoromethyl)sulfonyl)propan-1-one], the IC50 lay within 0.001 to 10 µM.

For the compound `NC(=O)NCCC(=O)N1CCc2c(cccc2Nc2ccc(C(F)(F)F)c(F)c2)C1` [Compound O-0190, 1-(3-(5-((3-fluoro-4-(trifluoromethyl)phenyl)amino)-3,4-dihydroisoquinolin-2(1H)-yl)-3-oxopropyl)urea], the IC50 is 0.001 to 10 µM.

For `O=C(Cc1cn[nH]c1)N1CCc2c(cccc2Nc2ccc(C(F)(F)F)cc2)C1` [Compound O-0026, 2-(1H-pyrazol-4-yl)-1-(5-((4-(trifluoromethyl)phenyl)amino)-3,4-dihydroisoquinolin-2(1H)-yl)ethan-1-one], the IC50 is 0.001 to 10 µM.

Consider `C=CC(=O)Nc1cccc(C(=O)N2CCc3c(cccc3N(C)c3ccc(C(F)(F)F)cc3)C2)c1` [Compound O-0017, N-(3-(5-(methyl(4-(trifluoromethyl)phenyl)amino)-1,2,3,4-tetrahydroisoquinoline-2-carbonyl)phenyl)acrylamide], for which the IC50 lay within 0.001 to 10 µM.

`N=C(N)N1CCC(C(=O)N2CCc3c(cccc3Nc3ccc(C(F)(F)F)cn3)C2)C1` (stereo not drawn) [Compound O-0203, 3-(5-((5-(trifluoromethyl)pyridin-2-yl)amino)-1,2,3,4-tetrahydroisoquinoline-2-carbonyl)pyrrolidine-1-carboximidamide]: the IC50 fell in the range of 0.001 to 10 µM.

For the compound `O=C(CCS(=O)(=O)C(F)(F)F)N1CCc2cc(Nc3ccc(C(F)(F)F)cc3)ccc2C1` [Compound O-0205, 1-(6-((4-(trifluoromethyl)phenyl)amino)-3,4-dihydroisoquinolin-2(1H)-yl)-3-((trifluoromethyl)sulfonyl)propan-1-one], the IC50 lay in the range of 0.001 to 10 µM.

As for `O=C(CCS(=O)(=O)C(F)(F)F)N1CCc2c(cccc2Nc2ccc(C(F)(F)F)cn2)C1` [Compound O-0021, 1-(5-((5-(trifluoromethyl)pyridin-2-yl)amino)-3,4-dihydroisoquinolin-2(1H)-yl)-3-((trifluoromethyl)sulfonyl)propan-1-one], the IC50 was in the range of 0.001 to 10 µM.
